According to ChEMBL document CHEMBL1153686, “On the microbial biogeneration of (R) -jasmolactone” (1993):

How the values were obtained:
Assay type in all cases: functional
Scheffersomyces stipitis [1] = assay: Z-7-decen-5-olide Isolated at 24 hours incubation of compound in Pichia stipitis
Kodamaea ohmeri [2] = assay: Z-7-decen-5-olide Isolated at 24 hours incubation of compound in Pichia ohmeri
Scheffersomyces stipitis [3] = assay: 5-octen-4-olide Isolated at 24 hours incubation of compound in Pichia stipitis
Scheffersomyces stipitis [4] = assay: Hexane-4-olide Isolated at 24 hours incubation of compound in Pichia stipitis
Kodamaea ohmeri [5] = assay: Hexane-4-olide Isolated at 24 hours incubation of compound in Pichia ohmeri
Kodamaea ohmeri [6] = assay: Nonan-4-olide Isolated at 24 hours incubation of compound in Pichia ohmeri
Kodamaea ohmeri [7] = assay: […] Isolated at 24 hours incubation of compound in Pichia ohmeri
Scheffersomyces stipitis [8] = assay: […] Isolated at 24 hours incubation of compound in Pichia stipitis
Scheffersomyces stipitis [9] = assay: Octane-4-olide Isolated at 24 hours incubation of compound in Pichia stipitis
Scheffersomyces stipitis [10] = assay: E-5,Z-7-dodien-4-olide Isolated at 24 hours incubation of compound in Pichia stipitis
Kodamaea ohmeri [11] = assay: E-5-decen-4-olide Isolated at 24 hours incubation of compound in Pichia ohmeri
Kodamaea ohmeri [12] = assay: Decan-4-olide Isolated at 24 hours incubation of compound in Pichia ohmeri
Kodamaea ohmeri [13] = assay: E-5,Z-7-dodien-4-olide solated at 24 hours incubation of compound in Pichia ohmeri
Scheffersomyces stipitis [14] = assay: E-5-decen-4-olide Isolated at 24 hours incubation of compound in Pichia stipitis
Scheffersomyces stipitis [15] = assay: Z-6, Z-9-dodecadien-4-olide Isolated at 24 hours incubation of compound in Pichia stipitis
Kodamaea ohmeri [16] = assay: dodecan-4-olide Isolated at 24 hours incubation of compound in Pichia ohmeri
Scheffersomyces stipitis [17] = assay: Z-6-dodecen-4-olide Isolated at 24 hours incubation of compound in Pichia stipitis
Kodamaea ohmeri [18] = assay: Z-6, Z-9-dodecadien-4-olide Isolated at 24 hours incubation of compound in Pichia ohmeri
Scheffersomyces stipitis [19] = assay: dodecan-4-olide Isolated at 24 hours incubation of compound in Pichia stipitis
Kodamaea ohmeri [20] = assay: Z-6-dodecen-4-olide Isolated at 24 hours incubation of compound in Pichia ohmeri
Scheffersomyces stipitis [21] = assay: 5-tetradecen-4-olide Isolated at 24 hours incubation of compound in Pichia stipitis

CC/C=C/C[C@@H]1CCC(=O)O1
Lactone production (Scheffersomyces stipitis [1]): 12.5 | Lactone production (Kodamaea ohmeri [2]): 12.3

CC/C=C/CCCC1CCC(=O)O1 (stereo unspecified)
Lactone production (Scheffersomyces stipitis [3]): 11.9 | Lactone production (Scheffersomyces stipitis [4]): 3.2 | Lactone production (Kodamaea ohmeri [5]): 8.25

CC/C=C/CC[C@@H]1CCC(=O)O1
Lactone production (Kodamaea ohmeri [6]): 5.9 | Lactone production (Kodamaea ohmeri [7]): 1.1 | Lactone production (Scheffersomyces stipitis [8]): 0.3 | Lactone production (Scheffersomyces stipitis [9]): 4

CC/C=C/C=C/[C@@H]1CCC(=O)O1
Lactone production (Scheffersomyces stipitis [10]): 25.09 | Lactone production (Kodamaea ohmeri [11]): 7.6 | Lactone production (Kodamaea ohmeri [12]): 1.5 | Lactone production (Kodamaea ohmeri [13]): 20.5 | Lactone production (Scheffersomyces stipitis [14]): 8.6

CCCCCCCC/C=C/CCCC1CCC(=O)O1 (stereo unspecified)
Lactone production (Scheffersomyces stipitis [15]): 16.7 | Lactone production (Kodamaea ohmeri [16]): 4.6 | Lactone production (Scheffersomyces stipitis [17]): 11 | Lactone production (Kodamaea ohmeri [18]): 25.6 | Lactone production (Scheffersomyces stipitis [19]): 4 | Lactone production (Kodamaea ohmeri [20]): 11.8 | Lactone production (Scheffersomyces stipitis [21]): 2.6
